The record followed here is patent publication US20250206730A1 (AUTOTELIC BIO INC., priority 2022, published 2025).

Bounds are passed on as bounds.

One assay deals with T1, ALK5 kinase (Homo sapiens, UniProt P36897).
T1 sequence (P36897 34-503): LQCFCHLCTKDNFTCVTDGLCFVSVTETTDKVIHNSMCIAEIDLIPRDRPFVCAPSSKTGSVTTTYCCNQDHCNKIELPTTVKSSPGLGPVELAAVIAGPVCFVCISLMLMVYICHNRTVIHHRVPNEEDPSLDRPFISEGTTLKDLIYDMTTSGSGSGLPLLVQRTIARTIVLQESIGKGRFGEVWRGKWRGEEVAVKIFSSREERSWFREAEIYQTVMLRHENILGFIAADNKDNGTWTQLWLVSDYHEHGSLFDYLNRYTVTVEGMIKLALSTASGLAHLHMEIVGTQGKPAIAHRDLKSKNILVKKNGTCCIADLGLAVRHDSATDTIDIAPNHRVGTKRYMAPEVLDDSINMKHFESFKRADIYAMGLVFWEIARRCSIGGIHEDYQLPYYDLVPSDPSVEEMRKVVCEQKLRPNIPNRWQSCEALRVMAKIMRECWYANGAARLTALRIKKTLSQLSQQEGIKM
Description: LanthaScreen Eu Kinase Binding Assay. The note with it: Kinase Tracer 178, Eu-anti-GST Antibody, read-out: IC50 Enzyme. The gist of the method:
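Compound (1% DMSO final) preincubated 30 min at RT with GST-tagged ALK5, then Eu-anti-GST antibody and Kinase Tracer 178 added for 60 min at RT. TR-FRET read at 340 nm excitation; 665/615 nm emission ratio falls as compound binding rises.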

A further assay has as its system TGF-β signaling. Description: Assay for evaluating cellular inhibition of TGF-β signaling, HEK293 (SBE reporter) luciferase reporter. It is filed as cell-based. As to conditions: Homo sapiens; HEK293 (SBE reporter) stable cells, 0.5% FBS, 2 h pre-treatment, TGF-β1 2 ng/mL 24 h; read-out: IC50 HEK 293 Cell. The method, then: [Example 2] Assay for Evaluating Cellular Inhibition of TGF-β Signaling
4T1 (SBE-luc2P) transient pool that have SBE-luc2P (hygro) expression plasmid or HEK293 (SBE reporter) stable cells (BPS bioscience) were seeded at 6×10^3 cells/well or 2.5×10^4 cells/well in 96-well plate, respectively. 4T1 (SBE-luc2P) transient pool were pre-treated with novel compound synthesized in Example 1 above in 0.2% FBS at approximately 60% confluence at 37° C. in 5% CO2. Also, HEK293 (SBE reporter) stable cells were pre-treated with each test compounds of formula in 0.5% FBS at approximately 80% confluence at 37° C. in 5% CO2. After 2 hours, cells were treated with TGF-β1 (2 ng/mL) for 24 h at 37° C. in 5% CO2. Cell lysates were prepared using Luciferase Assay (Promega) according to the manufacturer's instruction, and luminescence was measured by a plate reader, Biotek Synergy H1 (Vermont, USA).
On the technique in general: A reporter such as luciferase makes a cellular process visible.

A word on the IC50: it is the concentration that inhibits the measured activity by half.

Consider `CCc1nc(-c2cccc(C)n2)c(Oc2ccnc(Nc3ccnc(C(N)=O)c3)c2)s1` [A-264, 4-((4-((2-Ethyl-4-(6-methylpyridin-2-yl)thiazol-5-yl)oxy)pyridin-2-yl)amino)picolinamide], for which the IC50 on ALK5 kinase and with TGF-β signaling was less than 100 nM in each case.
As for `CNC(=O)c1ccnc(Nc2cc(Oc3sc(C4CC4)nc3-c3cccc(C)n3)ccn2)c1` [A-280, 2-((4-((2-Cyclopropyl-4-(6-methylpyridin-2-yl)thiazol-5-yl)oxy)pyridin-2-yl)amino)-N-methylisonicotinamide], the IC50 on ALK5 kinase and with TGF-β signaling was less than 100 nM each time.
Take `CCc1nc(-c2cccc(C)n2)c(Oc2ccnc(Nc3ccc(C(=O)OCCN(C)C)cn3)c2)s1` [A-271, 2-(Dimethylamino)ethyl 6-((4-((2-ethyl-4-(6-methylpyridin-2-yl)thiazol-5-yl)oxy)pyridin-2-yl)amino)nicotinate]: the IC50 at ALK5 kinase and with TGF-β signaling was less than 100 nM throughout.
In the case of `NC(=O)c1ccc(Nc2cc(Oc3oc(C4CC4)nc3-c3ccccc3)ccn2)nc1` [A-294, 6-((4-((2-Cyclopropyl-4-phenyloxazol-5-yl)oxy)pyridin-2-yl)amino)nicotinamide], the IC50 at ALK5 kinase and with TGF-β signaling was less than 100 nM each time.
On to `O=C(O)c1ccc(Nc2cc(Oc3oc(C4CC4)nc3-c3ccccc3)ccn2)cc1` [A-295, 4-((4-((2-Cyclopropyl-4-phenyloxazol-5-yl)oxy)pyridin-2-yl)amino)benzoic acid], for which the IC50 on ALK5 kinase and in the assay with TGF-β signaling was less than 100 nM throughout.
Take `CCc1nc(-c2cccc(C)n2)c(Oc2ccnc(Nc3ccc(C(=O)OCC4CC4)cn3)c2)s1` [A-270]: the IC50 on ALK5 kinase and in the assay with TGF-β signaling was less than 100 nM in each case.
On to `Cc1cccc(-c2nc(C3CC3)sc2Oc2ccnc(Nc3cccc(S(N)(=O)=O)c3)c2)n1` [A-277, 3-((4-((2-Cyclopropyl-4-(6-methylpyridin-2-yl)thiazol-5-yl)oxy)pyridin-2-yl)amino)benzenesulfonamide], for which the IC50 at ALK5 kinase and in the assay with TGF-β signaling was less than 100 nM in each case.
`CNC(=O)c1cccc(Nc2cc(Oc3sc(C4CC4)nc3-c3cccc(C)n3)ccn2)n1` [A-279, 6-((4-((2-Cyclopropyl-4-(6-methylpyridin-2-yl)thiazol-5-yl)oxy)pyridin-2-yl)amino)-N-methylpicolinamide]: the IC50 on ALK5 kinase and with TGF-β signaling was less than 100 nM throughout.
Turning to `Cc1cccc(-c2nc(C3CC3)sc2Oc2ccnc(Nc3cccc(C(N)=O)n3)c2)n1` [A-278, 6-((4-((2-Cyclopropyl-4-(6-methylpyridin-2-yl)thiazol-5-yl)oxy)pyridin-2-yl)amino)picolinamide], the half-maximal inhibitory concentration (IC50) on ALK5 kinase and in the assay on TGF-β signaling was less than 100 nM throughout.
For `O=C(O)c1ccc(Nc2cc(Oc3oc(C4CC4)nc3-c3ccccc3)ccn2)nc1` [A-293, 6-((4-((2-Cyclopropyl-4-phenyloxazol-5-yl)oxy)pyridin-2-yl)amino)nicotinic acid], the IC50 at ALK5 kinase and in the assay on TGF-β signaling was less than 100 nM throughout.
